Laboratory results taken from US7833939B2, “Herbicide compositions” (Kumiai Chemical Industry Co., Ltd., priority 2002, dated 2010).
Values belong to the compound of their own block, whether it stands above or below them.

Legend:
corn = experiment: Herbicidal effect by upland field soil treatment (Application Example 1): phytotoxicity to corn; format: in vivo; settings: 30th day from treatment
Procedure: (§1) Test for Herbicidal Effect by Upland Field Soil Treatment
(§2) An upland field soil was filled in a plastic pot of 11 cm each of length, width and depth. Seeds of corn, green foxtail (Setaria viridis) and common lambsquarters (Chenopodium album L.) were sowed, followed by covering with the same soil. The wettable powder produced in accordance with Formulation 1 was weighed so as to provide active ingredients in a predetermined amount, and was diluted with water and sprayed uniformly on the soil surface using a small sprayer, in an amount of 100 liters per […]. Then, growing was made in a greenhouse, and the herbicidal effect of each wettable powder was examined at the 30th day from the treatment in accordance with the standard shown in Table 15.

[1] = system: green foxtail (Setaria viridis); experiment: Herbicidal effect by upland field soil treatment (Application Example 1): green foxtail; format: in vivo; settings: 30th day from treatment
Procedure: as §1, §2

[2] = system: common lambsquarters (Chenopodium album L.); experiment: Herbicidal effect by upland field soil treatment (Application Example 1): common lambsquarters; format: in vivo; settings: 30th day from treatment
Procedure: as §1, §2

[3] = 32 g a.i./ha, soil surface spray of wettable powder, index of Table 15
[4] = 32 g a.i./ha, upland field soil treatment
[5] = 16 g a.i./ha, upland field soil treatment
[6] = 16 g a.i./ha, soil surface spray of wettable powder, index of Table 15
[7] = 500 g a.i./ha, soil surface spray of wettable powder, index of Table 15
[8] = 500 g a.i./ha, upland field soil treatment

SMILES: CC1(C)CC(SCc2c(C(F)(F)F)nn(-c3ccccc3)c2Cl)=NO1
melting point: 89 to 90 °C

SMILES: CC1(C)CC(SCc2c(C(F)(F)F)nn(C(C)(C)C)c2Cl)=NO1
melting point: 79 to 81 °C

SMILES: CC1(C)CC(SCc2c(C(F)(F)F)n[nH]c2Cl)=NO1
melting point: 120 to 122 °C

SMILES: CC1(C)CC(SCc2c(C(F)(F)F)nn(C(F)F)c2Cl)=NO1
melting point: 41 to 42 °C

SMILES: CC1(C)CC(SCc2c(Cl)nn(C(F)F)c2C(F)(F)F)=NO1
melting point: 89 to 90 °C

SMILES: CC1(C)CC(S(=O)(=O)Cc2c(C(F)(F)F)nn3c2OCCC3)=NO1
melting point: 151 to 152 °C

SMILES: CC1(C)CC(S(=O)(=O)Cc2cnccc2C(F)(F)F)=NO1
melting point: 77 to 80 °C

SMILES: Cn1nc(C(F)(F)F)c(CS(=O)(=O)C2=NOC(C)(C)C2)c1OC(F)F [Compound 3-0188, 3-(5-difluoromethoxy-1-methyl-3-trifluoromethyl-1H-pyrazol-4-ylmethanesulfonyl)-5,5-dimethyl-2-isoxazoline]
Herbicidal effect Green foxtail (Sataria viridis) [1, 6]: 3 (Herbicidal effect or phytotoxicity of from 30 to 39%)
Herbicidal effect Common lambsquarter (Chenopodium album L.) [2, 6]: 2 (Herbicidal effect or phytotoxicity of from 20 to 29%)

SMILES: Cc1nsc(Cl)c1CS(=O)(=O)C1=NOC(C)(C)C1 [Compound 4-0002, [(5-chloro-3-methyl-isothiazol-4-yl)-methylsulfonyl]-5,5-dimethyl-2-isoxazoline]
Herbicidal effect Corn (corn; [3]): 0 (Herbicidal effect or phytotoxicity of from 0 to 9%)
Herbicidal effect Green foxtail (Sataria viridis) [1, 3]: 3 (Herbicidal effect or phytotoxicity of from 30 to 39%)
Herbicidal effect Common lambsquarter (Chenopodium album L.) [2, 3]: 2 (Herbicidal effect or phytotoxicity of from 20 to 29%)

SMILES: COc1ncnc(C(F)(F)F)c1CS(=O)(=O)C1=NOC(C)(C)C1 [Compound 8-0001, 5,5-dimethyl-[(4-methoxy-6-trifluoromethylpyrimidin-5-yl)-methylsulfonyl]-2-isoxazoline]
Herbicidal effect Corn (corn; [6]): 0 (Herbicidal effect or phytotoxicity of from 0 to 9%)
Herbicidal effect Green foxtail (Sataria viridis) [1, 6]: 2 (Herbicidal effect or phytotoxicity of from 20 to 29%)
Herbicidal effect Common lambsquarter (Chenopodium album L.) [2, 6]: 1 (Herbicidal effect or phytotoxicity of from 10 to 19%)

SMILES: CCNc1nc(Cl)nc(NC(C)(C)C#N)n1 [Cyanazine, cyanazine, reference compound]
Herbicidal effect Corn (corn; [7]): 0 (Herbicidal effect or phytotoxicity of from 0 to 9%)
Herbicidal effect Corn (corn; [8]): 0 (Herbicidal effect or phytotoxicity of from 0 to 9%)
Herbicidal effect Green foxtail (Sataria viridis) [1, 7]: 1 (Herbicidal effect or phytotoxicity of from 10 to 19%)
Herbicidal effect Green foxtail (Sataria viridis) [1, 8]: 1 (Herbicidal effect or phytotoxicity of from 10 to 19%)
Herbicidal effect Common lambsquarter (Chenopodium album L.) [2, 7]: 2 (Herbicidal effect or phytotoxicity of from 20 to 29%)
Herbicidal effect Common lambsquarter (Chenopodium album L.) [2, 8]: 2 (Herbicidal effect or phytotoxicity of from 20 to 29%)

Continued, in another order:

melting point: 95 to 96 °C
SMILES: CON=C(C)c1c(C)sc(C)c1CS(=O)(=O)C1=NOC(C)(C)C1 [Compound 2-0001, 5,5-dimethyl-3-[2,5-dimethyl-4-(1-methoxyiminoethyl)-thiophen-3-ylmethylsulfonyl]-2-isoxazoline]
Herbicidal effect Corn (corn; [3]): 0 (Herbicidal effect or phytotoxicity of from 0 to 9%)
Herbicidal effect Green foxtail (Sataria viridis) [1, 3]: 2 (Herbicidal effect or phytotoxicity of from 20 to 29%)
Herbicidal effect Common lambsquarter (Chenopodium album L.) [2, 3]: 1 (Herbicidal effect or phytotoxicity of from 10 to 19%)

melting point: 132 to 133 °C
SMILES: CC1(C)CC(S(=O)(=O)Cc2c(C(F)(F)F)nn(-c3ccccc3)c2Cl)=NO1 [Compound 3-0002, 3-(5-chloro-1-phenyl-3-trifluoromethyl-1H-pyrazol-4-ylmethylsulfonyl)-5,5-dimethyl-2-isoxazoline]
Herbicidal effect Corn (corn; [4]): 0 (Herbicidal effect or phytotoxicity of from 0 to 9%)
Herbicidal effect Green foxtail (Sataria viridis) [1, 4]: 5 (Herbicidal effect or phytotoxicity of from 50 to 59%)
Herbicidal effect Common lambsquarter (Chenopodium album L.) [2, 4]: 2 (Herbicidal effect or phytotoxicity of from 20 to 29%)

melting point: 158 to 160 °C
SMILES: CCS(=O)(=O)c1c(CS(=O)(=O)C2=NOC(C)(C)C2)c(C(F)(F)F)nn1-c1ccccc1 [Compound 3-0004, 5,5-dimethyl-3-(5-ethylsulfonyl-1-phenyl-3-trifluoromethyl-1H-pyrazol-4-ylmethylsulfonyl)-2-isoxazoline]
Herbicidal effect Corn (corn; [4]): 0 (Herbicidal effect or phytotoxicity of from 0 to 9%)
Herbicidal effect Green foxtail (Sataria viridis) [1, 4]: 3 (Herbicidal effect or phytotoxicity of from 30 to 39%)
Herbicidal effect Common lambsquarter (Chenopodium album L.) [2, 4]: 2 (Herbicidal effect or phytotoxicity of from 20 to 29%)

melting point: 150 to 151 °C
SMILES: CN(C)c1c(CS(=O)(=O)C2=NOC(C)(C)C2)c(C(F)(F)F)nn1-c1ccccc1 [Compound 3-0005, 5,5-dimethyl-3-(5-dimethylamino-1-phenyl-3-trifluoromethyl-1H-pyrazol-4-ylmethylsulfonyl)-2-isoxazoline]
Herbicidal effect Corn (corn; [4]): 0 (Herbicidal effect or phytotoxicity of from 0 to 9%)
Herbicidal effect Green foxtail (Sataria viridis) [1, 4]: 2 (Herbicidal effect or phytotoxicity of from 20 to 29%)
Herbicidal effect Common lambsquarter (Chenopodium album L.) [2, 4]: 2 (Herbicidal effect or phytotoxicity of from 20 to 29%)

melting point: 126 to 127 °C
SMILES: CC1(C)CC(S(=O)(=O)Cc2c(C(F)(F)F)nn(C(F)F)c2Cl)=NO1 [Compound 3-0010, 3-(5-chloro-1-difluoromethyl-3-trifluoromethyl-1H-pyrazol-4-ylmethylsulfonyl)-5,5-dimethyl-2-isoxazoline]
Herbicidal effect Corn (corn; [5]): 0 (Herbicidal effect or phytotoxicity of from 0 to 9%)
Herbicidal effect Green foxtail (Sataria viridis) [1, 5]: 2 (Herbicidal effect or phytotoxicity of from 20 to 29%)
Herbicidal effect Common lambsquarter (Chenopodium album L.) [2, 5]: 2 (Herbicidal effect or phytotoxicity of from 20 to 29%)

melting point: 136 to 137 °C
SMILES: CC1(C)CC(S(=O)(=O)Cc2c(Cl)nn(C(F)F)c2C(F)(F)F)=NO1 [Compound 3-0011, 3-(3-chloro-1-difluoromethyl-5-trifluoromethyl-1H-pyrazol-4-ylmethylsulfonyl)-5,5-dimethyl-2-isoxazoline]
Herbicidal effect Corn (corn; [5]): 0 (Herbicidal effect or phytotoxicity of from 0 to 9%)
Herbicidal effect Green foxtail (Sataria viridis) [1, 5]: 3 (Herbicidal effect or phytotoxicity of from 30 to 39%)
Herbicidal effect Common lambsquarter (Chenopodium album L.) [2, 5]: 2 (Herbicidal effect or phytotoxicity of from 20 to 29%)

melting point: 124 to 125 °C
SMILES: CCOc1nn(C)c(C(F)(F)F)c1CS(=O)(=O)C1=NOC(C)(C)C1 [Compound 3-0012, 5,5-dimethyl-3-(3-ethoxy-1-methyl-5-trifluoromethyl-1H-pyrazol-4-ylmethylsulfonyl)-2-isoxazoline]
Herbicidal effect Corn (corn; [5]): 0 (Herbicidal effect or phytotoxicity of from 0 to 9%)
Herbicidal effect Green foxtail (Sataria viridis) [1, 5]: 2 (Herbicidal effect or phytotoxicity of from 20 to 29%)
Herbicidal effect Common lambsquarter (Chenopodium album L.) [2, 5]: 1 (Herbicidal effect or phytotoxicity of from 10 to 19%)

melting point: 113 to 114 °C
SMILES: COc1c(CS(=O)(=O)C2=NOC(C)(C)C2)c(C(F)(F)F)nn1C [Compound 3-0013, 5,5-dimethyl-3-(5-methoxy-1-methyl-3-trifluoromethyl-1H-pyrazol-4-ylmethylsulfonyl)-2-isoxazoline]
Herbicidal effect Corn (corn; [5]): 0 (Herbicidal effect or phytotoxicity of from 0 to 9%)
Herbicidal effect Green foxtail (Sataria viridis) [1, 5]: 2 (Herbicidal effect or phytotoxicity of from 20 to 29%)
Herbicidal effect Common lambsquarter (Chenopodium album L.) [2, 5]: 2 (Herbicidal effect or phytotoxicity of from 20 to 29%)

melting point: 67 to 70 °C
SMILES: Cn1nc(C(F)(F)F)c(CS(=O)(=O)C2=NOC(C)(C)C2)c1Oc1ccccc1Cl [Compound 3-0014, 3-(5-(2-chlorophenoxy)-1-methyl-3-trifluoromethyl-1H-pyrazol-4-ylmethylsulfonyl)-5,5-dimethyl-2-isoxazoline]
Herbicidal effect Corn (corn; [4]): 0 (Herbicidal effect or phytotoxicity of from 0 to 9%)
Herbicidal effect Green foxtail (Sataria viridis) [1, 4]: 2 (Herbicidal effect or phytotoxicity of from 20 to 29%)
Herbicidal effect Common lambsquarter (Chenopodium album L.) [2, 4]: 2 (Herbicidal effect or phytotoxicity of from 20 to 29%)

melting point: 113 to 114 °C
SMILES: Cn1nc(C(F)(F)F)c(CS(=O)(=O)C2=NOC(C)(C)C2)c1OC1CCCC1 [Compound 3-0015, 3-(5-cyclopentyloxy-1-methyl-3-trifluoromethyl-1H-pyrazol-4-ylmethylsulfonyl)-5,5-dimethyl-2-isoxazoline]
Herbicidal effect Corn (corn; [4]): 0 (Herbicidal effect or phytotoxicity of from 0 to 9%)
Herbicidal effect Green foxtail (Sataria viridis) [1, 4]: 3 (Herbicidal effect or phytotoxicity of from 30 to 39%)
Herbicidal effect Common lambsquarter (Chenopodium album L.) [2, 4]: 3 (Herbicidal effect or phytotoxicity of from 30 to 39%)
